In patent publication EP0887077A1, “Use of azulene derivatives as metalloprotease inhibitors” (BOEHRINGER MANNHEIM GMBH, priority 1997, dated 1998):

These compounds were tested on TNF-α (assay: Inhibition of LPS-induced TNFα release from peripheral human leukocytes, TNFα-specific enzyme immunoassay of culture supernatant). Conditions: Leukocyte, Periphere humane Leukozyten, LPS über 22 Std., TNFα im Kulturüberstand.
Type: cell-based
Text: Periphere humane Leukozyten werden mit LPS über 22 Std. inkubiert. Der Kultutüberstand wird mit einem TNFα spezifischen Enzym-Immuno-Assay untersucht. Durch Vergleich der für die Messproben erhaltenen TNFα-Konzentrationen mit den ungehemmten Proben wird die prozentuale Hemmung für die einzelne Probe berechnet. Aus der Konzentrationsabhängigkeit der Hemmwerte werden rechnerisch die IC50-Werte bestimmt. […]
Die IC50-Werte der oben genannten Substanzen, die Gegenstand dieses Patentes sind, gegen TNF-α finden sich in der folgenden Tabelle;
An IC50 of 0.05 µM was found for CCOC(=O)Cc1ccc2c(C(=O)OCC)c(N(C(C)=O)C(C)=O)c(C(=O)OCC)c-2cc1 [Verbindung 2, 2-Diacetylamino-6-ethoxycarbonylmethyl-azulen-1,3-dicarbonsäurediethylester] in this work.
An IC50 of 0.2 µM was found for CCOC(=O)Cc1ccc2c(C(=O)OCC)c(N)c(C(=O)OCC)c-2cc1 [Verbindung 1, 2-Amino-6-ethoxycarbonylmethyl-azulen-1,3-dicarbonsäurediethylester] in this work.
An IC50 of 11.9 µM was found for CCOC(=O)Cc1ccc2c(C(=O)OCC)c(OCC)c(C(=O)OCC)c-2cc1 [Verbindung 6, 2-Ethoxy-6-ethoxycarbonylmethyl-azulen-1,3-dicarbonsäurediethylester] in this work.
An IC50 of 1.1 µM was found for CCOC(=O)c1c2ccc(Br)ccc-2c(C(=O)OCC)c1NC(C)=O [Verbindung 5, 2-Acetylamino-6-bromo-azulen-1,3-dicarbonsäurediethylester] in this work.
An IC50 of 2.7 µM was found for CCOC(=O)C(Cc1ccc2c(C(=O)OCC)c(Cl)c(C(=O)OCC)c-2cc1)=NO [Verbindung 9, 2-Chloro-6-(2-ethoxycarbonyl-2-hydroxyimino-ethyl)-azulen-1,3-dicarbonsäurediethylester] in this work.
An IC50 of 0.18 µM was found for CCOC(=O)c1c2ccc(C(C(=O)OCC)C(=O)OCC)ccc-2c(C(=O)OCC)c1N(C(C)=O)C(C)=O [Verbindung 3, 6-(Bis-ethoxycarbonylmethyl)-2-diacetylamino-azulen-1,3-dicarbonsäurediethylester] in this work.
An IC50 of 10.7 µM was found for Cc1cc(C=CC=O)c2c(C)ccc(C(C)C)cc1-2 [Verbindung 10, 3-(5-isopropyl-3,8-dimethyl-azulen-1-yl)-propenal] in this work.
An IC50 of 1.3 µM was found for CCOC(=O)c1c2ccc(Br)ccc-2c(C(=O)OCC)c1N(C(C)=O)C(C)=O [Verbindung 4, 6-Bromo-2-diacetylamino-azulen-1,3-dicarbonsäurediethylester] in this work.
An IC50 of 25.4 µM was found for CCOC(=O)c1c2cccccc-2c(C(=O)OCC)c1N [Verbindung 7, 2-Amino-azulen-1,3-dicarbonsäurediethylester] in this work.
An IC50 of 26 µM was found for CCOC(=O)c1c2ccc(S)ccc-2c(C(=O)OCC)c1N [Verbindung 8, 2-Amino-6-mercapto-azulen-1,3-dicarbonsäurediethylester] in this work.
